From patent US20250147039A1, “Compounds for complexation of rare earth elements and/or s-, p-, d- block metals, their coordination compounds, peptide conjugates, method of their preparation and use thereof” (USTAV ORGANICKE CHEMIE A BIOCHEMIE AV CR V.V.I., priority 2021, published 2025)

Columns and labels:
[1] = Formation of 1,5-cz-[Ln(Lig)] from Lig and Ln^III ions (metal dependent click-zip), MOPS/NaOH buffer pH 7.0, analytical HPLC (Charts 1, 2); conditions: MOPS/NaOH buffer pH 7.0
[2] = Formation of 1,5-cz-[M(Lig)] from Lig and M^III ions (metal dependent click-zip) (Charts 4, 5); type: physicochemical; conditions: MOPS/NaOH buffer pH 7.0, TD728, TD827 in 50% i-PrOH; for conversion to 1,5-cz-[M(Lig)], Y^III: TD714 sum of two diastereoisomers

conversion to 1,5-cz-[Ln(Lig)], Ce^III ([1]; after 1 week at 80° C.) | conversion to 1,5-cz-[Ln(Lig)], Ce^III ([1]; after 1 hour at 80° C.) | conversion to 1,5-cz-[Ln(Lig)], Dy^III ([1]; after 1 week at 80° C.) | conversion to 1,5-cz-[Ln(Lig)], Dy^III ([1]; after 1 hour at 80° C.) | conversion to 1,5-cz-[Ln(Lig)], Er^III ([1]; after 1 week at 80° C.) | conversion to 1,5-cz-[Ln(Lig)], Er^III ([1]; after 1 hour at 80° C.) | conversion to 1,5-cz-[Ln(Lig)], Eu^III ([1]; after 1 week at 80° C.) | conversion to 1,5-cz-[Ln(Lig)], Eu^III ([1]; after 1 hour at 80° C.) | conversion to 1,5-cz-[Ln(Lig)], Gd^III ([1]; after 1 week at 80° C.) | conversion to 1,5-cz-[Ln(Lig)], Gd^III ([1]; after 1 hour at 80° C.) | conversion to 1,5-cz-[Ln(Lig)], Ho^III ([1]; after 1 week at 80° C.) | conversion to 1,5-cz-[Ln(Lig)], Ho^III ([1]; after 1 hour at 80° C.) | conversion to 1,5-cz-[Ln(Lig)], La^III ([1]; after 1 week at 80° C.) | conversion to 1,5-cz-[Ln(Lig)], La^III ([1]; after 1 hour at 80° C.) | conversion to 1,5-cz-[Ln(Lig)], Lu^III ([1]; after 1 week at 80° C.) | conversion to 1,5-cz-[Ln(Lig)], Lu^III ([1]; after 1 hour at 80° C.) | conversion to 1,5-cz-[Ln(Lig)], Nd^III ([1]; after 1 week at 80° C.) | conversion to 1,5-cz-[Ln(Lig)], Nd^III ([1]; after 1 hour at 80° C.) | conversion to 1,5-cz-[Ln(Lig)], Pr^III ([1]; after 1 week at 80° C.) | conversion to 1,5-cz-[Ln(Lig)], Pr^III ([1]; after 1 hour at 80° C.) | other results | Compound
0% | 20% | 18% | 13% | 32% | 25% | 3% | 4% | 11% | 4% | 30% | 17% | 0% | 24% | 34% | 26% | 0% | 9% | 0% | 13% | conversion to 1,5-cz-[Ln(Lig)], Sm^III ([1]; after 1 week at 80° C.): 1%; conversion to 1,5-cz-[Ln(Lig)], Sm^III ([1]; after 1 hour at 80° C.): 4%; conversion to 1,5-cz-[Ln(Lig)], Tb^III ([1]; after 1 week at 80° C.): 15%; conversion to 1,5-cz-[Ln(Lig)], Tb^III ([1]; after 1 hour at 80° C.): 9%; conversion to 1,5-cz-[Ln(Lig)], Tm^III ([1]; after 1 week at 80° C.): 31%; conversion to 1,5-cz-[Ln(Lig)], Tm^III ([1]; after 1 hour at 80° C.): 31%; conversion to 1,5-cz-[Ln(Lig)], Yb^III ([1]; after 1 week at 80° C.): 27%; conversion to 1,5-cz-[Ln(Lig)], Yb^III ([1]; after 1 hour at 80° C.): 30%; conversion to 1,5-cz-[M(Lig)], Sc^III ([2]; 1 week at 80° C.): 0%; conversion to 1,5-cz-[M(Lig)], Y^III ([2]; 1 week at 80° C.): 27%; conversion to 1,5-cz-[M(Lig)], Sc^III ([2]; 1 hour at 80° C.): 0%; conversion to 1,5-cz-[M(Lig)], Y^III ([2]; 1 hour at 80° C.): 17% | C#Cc1cccc(CN2CCN(CC(=O)NCC(=O)O)CCN(Cc3cc(-c4ccccc4)cc(CN=[N+]=[N-])n3)CCN(CC(=O)NCC(=O)O)CC2)n1 [TD778]
0% | 0% | 0% | 8% | 0% | 12% | 0% | 2% | 0% | 3% | 0% | 10% | 0% | 0% | 0% | 5% | 0% | 0% | 0% | 0% | conversion to 1,5-cz-[Ln(Lig)], Sm^III ([1]; after 1 week at 80° C.): 0%; conversion to 1,5-cz-[Ln(Lig)], Sm^III ([1]; after 1 hour at 80° C.): 1%; conversion to 1,5-cz-[Ln(Lig)], Tb^III ([1]; after 1 week at 80° C.): 0%; conversion to 1,5-cz-[Ln(Lig)], Tb^III ([1]; after 1 hour at 80° C.): 6%; conversion to 1,5-cz-[Ln(Lig)], Tm^III ([1]; after 1 week at 80° C.): 0%; conversion to 1,5-cz-[Ln(Lig)], Tm^III ([1]; after 1 hour at 80° C.): 9%; conversion to 1,5-cz-[Ln(Lig)], Yb^III ([1]; after 1 week at 80° C.): 0%; conversion to 1,5-cz-[Ln(Lig)], Yb^III ([1]; after 1 hour at 80° C.): 9%; conversion to 1,5-cz-[M(Lig)], Sc^III ([2]; 1 week at 80° C.): 0%; conversion to 1,5-cz-[M(Lig)], Y^III ([2]; 1 week at 80° C.): 0%; conversion to 1,5-cz-[M(Lig)], Sc^III ([2]; 1 hour at 80° C.): 0%; conversion to 1,5-cz-[M(Lig)], Y^III ([2]; 1 hour at 80° C.): 4% | C#Cc1cccc(CN2CCN(CC(N)=O)CCN(Cc3cc(-c4ccccc4)cc(CN=[N+]=[N-])n3)CCN(CC(N)=O)CC2)n1 [TD779]
0% | 0% | 0% | 0% | 0% | 0% | 0% | 0% | 0% | 0% | 0% | 0% | 0% | 0% | 0% | 0% | 0% | 0% | 0% | 0% | conversion to 1,5-cz-[Ln(Lig)], Sm^III ([1]; after 1 week at 80° C.): 0%; conversion to 1,5-cz-[Ln(Lig)], Sm^III ([1]; after 1 hour at 80° C.): 0%; conversion to 1,5-cz-[Ln(Lig)], Tb^III ([1]; after 1 week at 80° C.): 0%; conversion to 1,5-cz-[Ln(Lig)], Tb^III ([1]; after 1 hour at 80° C.): 0%; conversion to 1,5-cz-[Ln(Lig)], Tm^III ([1]; after 1 week at 80° C.): 0%; conversion to 1,5-cz-[Ln(Lig)], Tm^III ([1]; after 1 hour at 80° C.): 0%; conversion to 1,5-cz-[Ln(Lig)], Yb^III ([1]; after 1 week at 80° C.): 0%; conversion to 1,5-cz-[Ln(Lig)], Yb^III ([1]; after 1 hour at 80° C.): 0%; conversion to 1,5-cz-[M(Lig)], Sc^III ([2]; 1 week at 80° C.): 0%; conversion to 1,5-cz-[M(Lig)], Y^III ([2]; 1 week at 80° C.): 0%; conversion to 1,5-cz-[M(Lig)], Sc^III ([2]; 1 hour at 80° C.): 0%; conversion to 1,5-cz-[M(Lig)], Y^III ([2]; 1 hour at 80° C.): 0% | C#Cc1cccc(CN2CCN(CCC(=O)O)CCN(Cc3cccc(CN=[N+]=[N-])n3)CCN(CCC(=O)O)CC2)n1 [TD801]
